The term IC50 denotes the point on the concentration scale where inhibition reaches its midpoint.

IC50 data for 28 compounds are collected here from patent US11180494B2, “Substituted amino acids as integrin inhibitors” (Pliant Therapeutics, Inc., priority 2018, dated 2021).

The structures appear in SMILES notation.

Sequence of human integrin αvβ6 (P06756 31-992): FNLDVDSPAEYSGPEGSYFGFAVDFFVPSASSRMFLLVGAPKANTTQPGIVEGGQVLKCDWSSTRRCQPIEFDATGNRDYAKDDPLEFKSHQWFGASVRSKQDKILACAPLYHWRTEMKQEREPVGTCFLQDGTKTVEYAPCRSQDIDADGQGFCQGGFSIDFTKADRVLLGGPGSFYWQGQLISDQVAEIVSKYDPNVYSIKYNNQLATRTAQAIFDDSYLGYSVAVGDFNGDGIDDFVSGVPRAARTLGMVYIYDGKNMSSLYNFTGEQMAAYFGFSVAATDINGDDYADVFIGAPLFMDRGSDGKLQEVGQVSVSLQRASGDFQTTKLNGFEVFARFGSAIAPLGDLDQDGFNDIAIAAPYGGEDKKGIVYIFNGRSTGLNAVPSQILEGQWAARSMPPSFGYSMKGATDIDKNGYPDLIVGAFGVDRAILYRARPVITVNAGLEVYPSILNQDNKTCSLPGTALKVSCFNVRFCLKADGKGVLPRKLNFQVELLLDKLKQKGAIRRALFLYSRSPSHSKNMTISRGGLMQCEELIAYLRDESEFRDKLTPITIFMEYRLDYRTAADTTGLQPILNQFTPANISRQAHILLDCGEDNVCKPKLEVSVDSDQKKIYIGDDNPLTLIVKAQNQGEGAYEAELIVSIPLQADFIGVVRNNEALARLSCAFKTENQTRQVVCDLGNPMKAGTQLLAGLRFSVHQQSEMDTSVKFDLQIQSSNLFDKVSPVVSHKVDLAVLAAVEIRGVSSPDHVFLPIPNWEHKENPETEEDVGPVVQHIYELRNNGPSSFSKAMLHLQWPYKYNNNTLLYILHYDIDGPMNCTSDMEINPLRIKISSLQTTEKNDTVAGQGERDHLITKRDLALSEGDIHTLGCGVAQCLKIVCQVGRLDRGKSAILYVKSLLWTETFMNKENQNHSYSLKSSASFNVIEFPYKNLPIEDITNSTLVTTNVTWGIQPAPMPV
Sequence of human integrin αvβ6 (P18564 22-707): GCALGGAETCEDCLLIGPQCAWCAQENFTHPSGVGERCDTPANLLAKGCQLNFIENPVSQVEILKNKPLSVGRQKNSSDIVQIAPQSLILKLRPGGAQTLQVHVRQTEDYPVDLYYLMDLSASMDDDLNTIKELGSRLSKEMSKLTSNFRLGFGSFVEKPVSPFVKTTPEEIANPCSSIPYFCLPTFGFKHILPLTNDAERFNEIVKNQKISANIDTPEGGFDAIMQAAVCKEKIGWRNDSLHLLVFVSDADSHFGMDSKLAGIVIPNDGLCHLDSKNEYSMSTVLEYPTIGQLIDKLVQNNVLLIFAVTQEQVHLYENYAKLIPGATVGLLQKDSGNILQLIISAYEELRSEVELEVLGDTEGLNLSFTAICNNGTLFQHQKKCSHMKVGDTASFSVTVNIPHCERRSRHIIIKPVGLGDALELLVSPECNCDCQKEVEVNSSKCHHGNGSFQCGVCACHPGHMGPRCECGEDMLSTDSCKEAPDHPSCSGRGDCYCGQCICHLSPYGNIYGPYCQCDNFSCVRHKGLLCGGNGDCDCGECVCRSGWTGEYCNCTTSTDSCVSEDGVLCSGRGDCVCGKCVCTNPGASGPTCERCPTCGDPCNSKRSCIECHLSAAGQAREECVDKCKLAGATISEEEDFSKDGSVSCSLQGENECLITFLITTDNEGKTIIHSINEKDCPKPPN

For the experiment, the target named is human integrin αvβ6 (Homo sapiens (Human), UniProt P06756+P18564). As to the kind of experiment: Proximity-based integrin receptor binding assay (ALPHASCREEN) for inhibitor potency. The note with it: inhibition of binding of TGF-b1 LAP to human integrin αvβ6; values given in ranges. How it is done:
To gauge the potency of inhibitors of binding to human integrin αvβ6, inhibitor compounds and integrin were incubated together with TGF-b1 LAP and biotinylated anti-LAP antibody plus acceptor and donor beads, following the manufacture's recommendations. The donor beads were coated with streptavidin. […] All incubations occurred at room temperatures in 50 mM Tris-HCl, pH 7.5, 0.1% BSA supplemented with 1 mM each CaCl2 and MgCl2.
The order of reagent addition was as follows:
1. Alpha-v-beta-6 integrin, test inhibitor compound, LAP, biotinylated anti-LAP antibody and acceptor beads were all added together.
2. After 2 hours, donor beads were added. After another 30 minute incubation, samples were then read.
Integrin binding was evaluated by exciting donor beads at 680 nm, and measuring the fluorescent signal produced, between 520-620 nm, using a Biotek Instruments (Winooski, Vt., USA) SynergyNeo2 multimode plate reader. […] Data analysis for IC50 determinations was carried out by nonlinear four parameter logistic regression analysis using Dotmatics ELN Software (Core Informatics Inc., Branford, Conn.).
In general terms: Alpha assays give light when donor and acceptor beads are brought close together.
Regarding `O=C(N[C@@H](CCO[C@H]1C[C@H](CCc2ccc3c(n2)NCCC3)C1)C(=O)O)c1cc(F)cc(Cl)c1` [Compound 26, N-(3-chloro-5-fluorobenzoyl)-O-(trans-3-(2-(5,6,7,8-tetrahydro-1,8-naphthyridin-2-yl)ethyl)cyclobutyl)homoserine], the IC50 is under 50 nM.

In the case of `O=C(N[C@@H](CCO[C@H]1C[C@H](CCc2ccc3c(n2)NCCC3)C1)C(=O)O)c1cccc(Cl)c1F` [Compound 27, N-(3-chloro-2-fluorobenzoyl)-O-(trans-3-(2-(5,6,7,8-tetrahydro-1,8-naphthyridin-2-yl)ethyl)cyclobutyl)homoserine], the IC50 was under 50 nM. Consider `O=C(N[C@@H](CCO[C@H]1C[C@H](CCc2ccc3c(n2)NCCC3)C1)C(=O)O)c1cc(F)cc(F)c1` [Compound 28, N-(3,5-difluorobenzoyl)-O-(trans-3-(2-(5,6,7,8-tetrahydro-1,8-naphthyridin-2-yl)ethyl)cyclobutyl)homoserine], for which the IC50 was under 50 nM. For the compound `O=C(N[C@@H](CCO[C@H]1C[C@H](CCc2ccc3c(n2)NCCC3)C1)C(=O)O)c1ccc(F)c(F)c1` [Compound 29, N-(3,4-difluorobenzoyl)-O-(trans-3-(2-(5,6,7,8-tetrahydro-1,8-naphthyridin-2-yl)ethyl)cyclobutyl)homoserine], the half-inhibitory concentration (IC50) was under 50 nM. Under `O=C(N[C@@H](CCO[C@H]1C[C@H](CCc2ccc3c(n2)NCCC3)C1)C(=O)O)c1cccc(Cl)c1Cl` [Compound 30, N-(2,3-dichlorobenzoyl)-O-(trans-3-(2-(5,6,7,8-tetrahydro-1,8-naphthyridin-2-yl)ethyl)cyclobutyl)homoserine] stands under 50 nM; under `O=C(N[C@@H](CCO[C@H]1C[C@H](CCc2ccc3c(n2)NCCC3)C1)C(=O)O)c1c(F)cccc1Cl` [Compound 31, N-(2-chloro-6-fluorobenzoyl)-O-(trans-3-(2-(5,6,7,8-tetrahydro-1,8-naphthyridin-2-yl)ethyl)cyclobutyl)homoserine], under 50 nM.

In the case of `O=C(N[C@@H](CCO[C@H]1C[C@H](CCc2ccc3c(n2)NCCC3)C1)C(=O)O)c1c(F)cccc1F` [Compound 32, N-(2,6-difluorobenzoyl)-O-(trans-3-(2-(5,6,7,8-tetrahydro-1,8-naphthyridin-2-yl)ethyl)cyclobutyl)homoserine], the IC50 is under 50 nM.

Consider `O=C(N[C@@H](CCO[C@H]1C[C@H](CCc2ccc3c(n2)NCCC3)C1)C(=O)O)c1cc(F)ccc1F` [Compound 33, N-(2,5-difluorobenzoyl)-O-(trans-3-(2-(5,6,7,8-tetrahydro-1,8-naphthyridin-2-yl)ethyl)cyclobutyl)homoserine], for which the IC50 is under 50 nM. As for `O=C(N[C@@H](CCO[C@H]1C[C@H](CCc2ccc3c(n2)NCCC3)C1)C(=O)O)c1ccc(Cl)c(Cl)c1` [Compound 34, N-(3,4-dichlorobenzoyl)-O-(trans-3-(2-(5,6,7,8-tetrahydro-1,8-naphthyridin-2-yl)ethyl)cyclobutyl)homoserine], the half-maximal inhibitory concentration (IC50) fell in the range of 50 to 250 nM.

Regarding `O=C(N[C@@H](CCO[C@H]1C[C@H](CCc2ccc3c(n2)NCCC3)C1)C(=O)O)c1ccccn1` [Compound 35, N-picolinoyl-O-(trans-3-(2-(5,6,7,8-tetrahydro-1,8-naphthyridin-2-yl)ethyl)cyclobutyl)homoserine], the concentration for half-maximal inhibition (IC50) was 50 to 250 nM. On to `O=C(N[C@@H](CCO[C@H]1C[C@H](CCc2ccc3c(n2)NCCC3)C1)C(=O)O)c1cccnc1` [Compound 36, N-nicotinoyl-O-(trans-3-(2-(5,6,7,8-tetrahydro-1,8-naphthyridin-2-yl)ethyl)cyclobutyl)homoserine], for which the IC50 was under 50 nM. For `O=C(NC(CCO[C@H]1C[C@H](CCc2ccc3c(n2)NCCC3)C1)C(=O)O)c1ccncc1` (stereo partly drawn) [Compound 37, N-isonicotinoyl-O-(trans-3-(2-(5,6,7,8-tetrahydro-1,8-naphthyridin-2-yl)ethyl)cyclobutyl)homoserine] the value was under 50 nM; for `Cn1ncc2c(C(=O)N[C@@H](CCO[C@H]3C[C@H](CCc4ccc5c(n4)NCCC5)C3)C(=O)O)cccc21` [Compound 38, N-(1-methyl-1H-indazole-4-carbonyl)-O-(trans-3-(2-(5,6,7,8-tetrahydro-1,8-naphthyridin-2-yl)ethyl)cyclobutyl)homoserine], 50 to 250 nM; for `Cn1cc2ccc(C(=O)N[C@@H](CCO[C@H]3C[C@H](CCc4ccc5c(n4)NCCC5)C3)C(=O)O)cc2n1` [Compound 39, N-(2-methyl-2H-indazole-6-carbonyl)-O-(trans-3-(2-(5,6,7,8-tetrahydro-1,8-naphthyridin-2-yl)ethyl)cyclobutyl)homoserine], 50 to 250 nM.

For `Cn1cc2cc(C(=O)N[C@@H](CCO[C@H]3C[C@H](CCc4ccc5c(n4)NCCC5)C3)C(=O)O)ccc2n1` [Compound 40, N-(2-methyl-2H-indazole-5-carbonyl)-O-(trans-3-(2-(5,6,7,8-tetrahydro-1,8-naphthyridin-2-yl)ethyl)cyclobutyl)homoserine], the IC50 is 50 to 250 nM. For `Cn1ccc2c(C(=O)N[C@@H](CCO[C@H]3C[C@H](CCc4ccc5c(n4)NCCC5)C3)C(=O)O)ccnc21` [Compound 41, N-(1-methyl-1H-pyrrolo[2,3-b]pyridine-4-carbonyl)-O-(trans-3-(2-(5,6,7,8-tetrahydro-1,8-naphthyridin-2-yl)ethyl)cyclobutyl)homoserine], the concentration for half-maximal inhibition (IC50) is under 50 nM. For `O=C(O)C(CCO[C@H]1C[C@H](CCc2ccc3c(n2)NCCC3)C1)NC(=O)[C@@H](CO)c1ccccc1` (stereo partly drawn) [Compound 42, N—((R)-3-hydroxy-2-phenylpropanoyl)-O-(trans-3-(2-(5,6,7,8-tetrahydro-1,8-naphthyridin-2-yl)ethyl)cyclobutyl)homoserine] the value was 50 to 250 nM; for `O=C(O)C(CCO[C@H]1C[C@H](CCc2ccc3c(n2)NCCC3)C1)NC(=O)[C@@H](CO)c1ccccc1` (stereo partly drawn) [Compound 43, N—((R)-3-hydroxy-2-phenylpropanoyl)-O-(trans-3-(2-(5,6,7,8-tetrahydro-1,8-naphthyridin-2-yl)ethyl)cyclobutyl)homoserine], 250 to 1000 nM; for `CCC(CC)C(=O)N[C@@H](CCO[C@H]1C[C@H](CCc2ccc3c(n2)NCCC3)C1)C(=O)O` [Compound 44, N-(2-ethylbutanoyl)-O-(trans-3-(2-(5,6,7,8-tetrahydro-1,8-naphthyridin-2-yl)ethyl)cyclobutyl)homoserine], 50 to 250 nM. As to `CCC(CC)CC(=O)NC(CCO[C@H]1C[C@H](CCc2ccc3c(n2)NCCC3)C1)C(=O)O` (stereo partly drawn) [Compound 45, N-(3-ethylpentanoyl)-O-(trans-3-(2-(5,6,7,8-tetrahydro-1,8-naphthyridin-2-yl)ethyl)cyclobutyl)homoserine], the IC50 fell in the range of 50 to 250 nM. Regarding `O=C(O)C(CCO[C@H]1C[C@H](CCc2ccc3c(n2)NCCC3)C1)NC(=O)[C@H](CO)c1ccccc1` (stereo partly drawn) [Compound 46, N—((S)-3-hydroxy-2-phenylpropanoyl)-O-(trans-3-(2-(5,6,7,8-tetrahydro-1,8-naphthyridin-2-yl)ethyl)cyclobutyl)homoserine], the IC50 lay in the range of 250 to 1000 nM. For `O=C(O)C(CCO[C@H]1C[C@H](CCc2ccc3c(n2)NCCC3)C1)NC(=O)[C@H](CO)c1ccccc1` (stereo partly drawn) [Compound 47, N—((S)-3-hydroxy-2-phenylpropanoyl)-O-(trans-3-(2-(5,6,7,8-tetrahydro-1,8-naphthyridin-2-yl)ethyl)cyclobutyl)homoserine] the value was 250 to 1000 nM; for `Cn1ccc2cc(C(=O)N[C@@H](CCO[C@H]3C[C@H](CCc4ccc5c(n4)NCCC5)C3)C(=O)O)cnc21` [Compound 48, N-(1-methyl-1H-pyrrolo[2,3-b]pyridine-5-carbonyl)-O-(trans-3-(2-(5,6,7,8-tetrahydro-1,8-naphthyridin-2-yl)ethyl)cyclobutyl)homoserine], 250 to 1000 nM. For `O=C(NC(CCO[C@H]1C[C@H](CCc2ccc3c(n2)NCCC3)C1)C(=O)O)c1cccc(-c2cncs2)c1` (stereo partly drawn) [Compound 49, O-(trans-3-(2-(5,6,7,8-tetrahydro-1,8-naphthyridin-2-yl)ethyl)cyclobutyl)-N-(3-(thiazol-5-yl)benzoyl)homoserine] the value was 50 to 250 nM; for `O=C(N[C@@H](CCO[C@H]1C[C@H](CCc2ccc3c(n2)NCCC3)C1)C(=O)O)c1cccc(CO)c1` [Compound 50, N-(3-(hydroxymethyl)benzoyl)-O-(trans-3-(2-(5,6,7,8-tetrahydro-1,8-naphthyridin-2-yl)ethyl)cyclobutyl)homoserine], under 50 nM.

With `O=C(N[C@@H](CCO[C@H]1C[C@H](CCc2ccc3c(n2)NCCC3)C1)C(=O)O)c1cccc2ncccc12` [Compound 51, N-(quinoline-5-carbonyl)-O-(trans-3-(2-(5,6,7,8-tetrahydro-1,8-naphthyridin-2-yl)ethyl)cyclobutyl)homoserine], the IC50 was under 50 nM. `O=C(N[C@@H](CCO[C@H]1C[C@H](CCc2ccc3c(n2)NCCC3)C1)C(=O)O)c1ccccc1C1CC1` [Compound 52, N-(2-cyclopropylbenzoyl)-O-(trans-3-(2-(5,6,7,8-tetrahydro-1,8-naphthyridin-2-yl)ethyl)cyclobutyl)homoserine]: the IC50 was under 50 nM.

Turning to `O=C(N[C@@H](CCO[C@H]1C[C@H](CCc2ccc3c(n2)NCCC3)C1)C(=O)O)c1ccc2cccnc2c1` [Compound 53, N-(quinoline-7-carbonyl)-O-(trans-3-(2-(5,6,7,8-tetrahydro-1,8-naphthyridin-2-yl)ethyl)cyclobutyl)homoserine], the IC50 was in the range of 50 to 250 nM.
